Values quoted from earlier work as cited in US5683715A, “Taxane-containing phosphatidylcholine liposomes” (The Liposome Company, Inc., priority 1995, dated 1997).

Key:
[1] = test system: ovarian and breast cancers, malignant melanoma, colon cancer, leukemias and lung cancer; conditions: literature
tubulin = conditions: Schiff and Horowitz 1980

CC(=O)O[C@H]1C(=O)[C@@]2(C)[C@H]([C@H](OC(=O)c3ccccc3)[C@]3(O)C[C@H](OC(=O)[C@H](O)[C@@H](NC(=O)c4ccccc4)c4ccccc4)C(C)=C1C3(C)C)[C@]1(OC(C)=O)CO[C@@H]1C[C@@H]2O [Paclitaxel]
Activity against cancers [1]: activity against ovarian and breast cancers, as well as against malignant melanoma, colon cancer, leukemias and lung cancer
Concentrations of optimal effect on polymerization and stabilization of microtubules (tubulin): near stoichiometric equivalence with tubulin dimers
